Our source for the GI50 and TGI values is PubChem BioAssay (NCI).

Where “and” joins values, the source holds several entries; their conditions need not be identical. Equal values may be shown once.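 How tested: cells in 96-well plates exposed to compound for 48 hours at five concentrations. GI50 = concentration required for 50% inhibition of growth. TGI is the concentration that stops growth completely.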

Some test systems named below: COLO 205 colon; NCI-H522 lung; NCI/ADR-RES ovarian; T-47D breast; HCC-2998 colon; ACHN renal; SK-MEL-28 melanoma; BT-549 breast; NCI-H460 lung; HCT-15 colon.
Common to all, as to experiment: NCI anticancer screen, dose series, 48 h

For the molecule `COC(=O)Nc1nc2c(OC)c(OC)c(OC)cc2[nH]1`, the GI50 in the assay with COLO 205 colon is 7.33 µM; in the assay with NCI-H522 lung it was 13.3 µM; in the assay on NCI/ADR-RES ovarian, 8.91 µM; in the assay on T-47D breast, 33.2 µM; with HCC-2998 colon, 55.6 µM; with ACHN renal, 81.9 µM. The GI50 in the assay on SK-MEL-28 melanoma is 52.4 µM; in the assay on BT-549 breast, 50.4 µM; in the assay with NCI-H460 lung it was 14.6 µM; in the assay on HCT-15 colon, 5.71 µM. Also, the TGI with COLO 205 colon was 64.7 µM; in the assay on NCI-H522 lung, 58.1 µM; in the assay with NCI/ADR-RES ovarian, 97.6 µM; with T-47D breast, over 100 µM; in the assay on HCC-2998 colon it was over 100 µM; in the assay with ACHN renal, over 100 µM. The TGI with SK-MEL-28 melanoma, in the assay on BT-549 breast, in the assay on NCI-H460 lung and in the assay with HCT-15 colon was over 100 µM each time.

In the case of `O=C(Cc1ccccc1)Nc1nnc(CCSCCc2nnc(NC(=O)Cc3ccccc3)s2)s1`, the GI50 in the assay on COLO 205 colon was over 100 µM; with NCI-H522 lung, 8.41 µM; in the assay on NCI/ADR-RES ovarian, over 100 µM; in the assay on T-47D breast, 8.13 µM; with HCC-2998 colon it was 89.8 µM; in the assay on ACHN renal, over 100 µM. In addition, the GI50 in the assay with SK-MEL-28 melanoma is 13.2 µM; in the assay with BT-549 breast, 5.18 µM; with NCI-H460 lung, 14.5 µM; with HCT-15 colon, over 100 µM. Also, the TGI with COLO 205 colon, in the assay with NCI-H522 lung, in the assay with NCI/ADR-RES ovarian, in the assay with T-47D breast, with HCC-2998 colon and in the assay on ACHN renal was over 100 µM each time. Also, the TGI in the assay with SK-MEL-28 melanoma was over 100 µM; in the assay on BT-549 breast, 74.8 µM; in the assay with NCI-H460 lung it was over 100 µM; in the assay with HCT-15 colon, over 100 µM.

Consider `COc1ccc(S(=O)(=O)O)cc1NS(=O)(=O)c1ccc(C)cc1`, for which the TGI in the assay with COLO 205 colon, in the assay with NCI-H522 lung, in the assay on NCI/ADR-RES ovarian, in the assay on T-47D breast, with ACHN renal and in the assay with SK-MEL-28 melanoma was over 100 µM each time. Also, the TGI in the assay on BT-549 breast, with NCI-H460 lung and in the assay with HCT-15 colon was over 100 µM each time.

In the case of `COC(=O)[C@]12CC[C@@H](C)[C@H](C)[C@@H]1C1=CC[C@@H]3[C@@]4(C)C(c5ncon5)=C[C@@](C)(CO)C4=CC[C@@]3(C)[C@]1(C)CC2`, the GI50 in the assay with COLO 205 colon was 1.96 µM; in the assay with NCI-H522 lung, 1.71 µM; in the assay on NCI/ADR-RES ovarian, 2.28 µM; in the assay with T-47D breast, 1.99 µM; with HCC-2998 colon it was 2.14 µM; in the assay on ACHN renal, 1.9 µM. For the same molecule, the GI50 in the assay with BT-549 breast was 2.39 µM; in the assay with NCI-H460 lung, 1.97 µM; in the assay on HCT-15 colon it was 1.91 µM. The TGI with COLO 205 colon was found to be 4.15 µM; with NCI-H522 lung, 3.57 µM; in the assay on NCI/ADR-RES ovarian, 5.72 µM; in the assay with T-47D breast it was 5.86 µM; in the assay on HCC-2998 colon, 3.79 µM; in the assay with ACHN renal, 3.56 µM. Moreover, the TGI was 6.38 µM in the assay on BT-549 breast, 3.95 µM in the assay on NCI-H460 lung and 4.08 µM with HCT-15 colon.

As to `BrP(NC1CCCCCC1)(c1ccccc1)(c1ccccc1)c1ccccc1`, the TGI is 5.4 µM in the assay on COLO 205 colon; 8.5 µM in the assay with NCI-H522 lung; over 100 µM with NCI/ADR-RES ovarian; 7.76 µM in the assay on T-47D breast; 6.49 µM in the assay on HCC-2998 colon; 9.12 µM in the assay on ACHN renal. For the same molecule, the figures for the TGI in the assay with SK-MEL-28 melanoma, with BT-549 breast and in the assay with HCT-15 colon were 6.62 µM, 9.57 µM and 46.3 µM, respectively.

In the case of `CC[C@](O)(C(=O)O)c1cc2n(c(=O)c1CO)Cc1cc3ccccc3nc1-2`, the GI50 is 0.0556 µM and 0.296 µM in the assay with COLO 205 colon; 0.00661 µM and 0.012 µM in the assay on NCI/ADR-RES ovarian; under 0.0025 µM with T-47D breast; 0.147 µM and 0.169 µM and 0.0493 µM in the assay on SK-MEL-28 melanoma; 0.107 µM with BT-549 breast; under 0.0025 µM in the assay with NCI-H460 lung. Besides, the GI50 with HCT-15 colon was 0.26 µM and 0.0703 µM. The TGI in the assay with COLO 205 colon was 0.779 µM and 2.21 µM and 3.85 µM; with NCI/ADR-RES ovarian it was 0.224 µM and 0.121 µM and 0.0889 µM; in the assay with T-47D breast, 0.0755 µM; in the assay on ACHN renal, 0.0211 µM; with BT-549 breast, 11.5 µM and 18.5 µM; in the assay on NCI-H460 lung it was 0.0234 µM and 0.125 µM and 0.0345 µM. In addition, the TGI with HCT-15 colon was 25 µM and 7.92 µM.

For `Cc1sc2nc(-c3ccccn3)c(/C=N/N=C(N)N)n2c1C`, the GI50 with COLO 205 colon was 4.97 µM; in the assay on NCI-H522 lung, 5.18 µM; in the assay with NCI/ADR-RES ovarian, over 21.9 µM; with T-47D breast, 3.93 µM; in the assay with ACHN renal it was 7.29 µM; in the assay with SK-MEL-28 melanoma it was 4 µM. In addition, the values for the GI50 with BT-549 breast, in the assay with NCI-H460 lung and in the assay with HCT-15 colon were 1.92 µM, 13.6 µM and 4.98 µM, respectively. Besides, the TGI was 11.4 µM in the assay with COLO 205 colon; 13.3 µM with NCI-H522 lung; over 40 µM with NCI/ADR-RES ovarian; 10.2 µM in the assay with T-47D breast; 14.8 µM with ACHN renal; 9.13 µM in the assay with SK-MEL-28 melanoma. Moreover, the values for the TGI in the assay on BT-549 breast, in the assay with NCI-H460 lung and in the assay with HCT-15 colon were 4.39 µM, 36.2 µM and 13.5 µM, respectively.

Consider `O=S(=O)(NC(=S)Nc1ccccc1)c1ccc(N2N=C3c4ccccc4CC3C2c2ccc(Cl)cc2)cc1` (stereo not given), for which the GI50 in the assay on COLO 205 colon is 21.6 µM; in the assay with NCI-H522 lung, 18.1 µM; in the assay with T-47D breast it was 36.3 µM; in the assay with ACHN renal, 25.8 µM; with SK-MEL-28 melanoma it was 29.4 µM; in the assay with BT-549 breast, 33.2 µM. The GI50 with NCI-H460 lung is 22.2 µM; with HCT-15 colon it was 22.4 µM. Moreover, the TGI in the assay on COLO 205 colon was 44.3 µM; in the assay on NCI-H522 lung, 38.6 µM; in the assay on T-47D breast it was over 100 µM; with ACHN renal, 60.7 µM; in the assay with SK-MEL-28 melanoma it was 77 µM; with BT-549 breast, 78.3 µM. Moreover, the TGI with NCI-H460 lung worked out at 60 µM; with HCT-15 colon, 54.8 µM.

For `COC(=O)c1[nH]nc(-c2ccccc2)c1N1CCCCC1`, the GI50 is over 100 µM with COLO 205 colon; 36.8 µM in the assay with NCI-H522 lung; 22.8 µM in the assay on NCI/ADR-RES ovarian; 27 µM in the assay on T-47D breast; 25.6 µM with ACHN renal; 52.1 µM in the assay on SK-MEL-28 melanoma. The figures for the GI50 with BT-549 breast, with NCI-H460 lung and in the assay on HCT-15 colon were 43.9 µM, 38.1 µM and 36.2 µM, respectively. Besides, the TGI was over 100 µM in the assay with COLO 205 colon; over 100 µM in the assay with NCI-H522 lung; 58.5 µM with NCI/ADR-RES ovarian; 72.4 µM with T-47D breast; 62.1 µM in the assay on ACHN renal; over 100 µM in the assay on SK-MEL-28 melanoma. Also, the TGI with BT-549 breast, in the assay on NCI-H460 lung and in the assay with HCT-15 colon was over 100 µM throughout.

As for `O=C(c1ccc(O)cc1)c1ccc(C(=O)c2ccc(O)cc2)cc1`, the GI50 with COLO 205 colon was over 100 µM; in the assay on NCI-H522 lung it was 8.05 µM; in the assay on T-47D breast, 4.69 µM; in the assay with HCC-2998 colon it was over 100 µM; in the assay on ACHN renal, over 100 µM; with SK-MEL-28 melanoma, over 100 µM. Moreover, the GI50 was 94 µM in the assay on BT-549 breast and over 100 µM in the assay on HCT-15 colon. The TGI in the assay on COLO 205 colon, in the assay on NCI-H522 lung, in the assay with T-47D breast, in the assay with HCC-2998 colon, in the assay with ACHN renal and in the assay with SK-MEL-28 melanoma was over 100 µM throughout. Further, the TGI with BT-549 breast and in the assay on HCT-15 colon was over 100 µM each time.

With `Cc1cc[c-]cc1.Fc1c[c-]c(-c2ccccn2)c(F)c1.N#CCC[PH+](CCC#N)c1ccccc1.[Pt+2]`, the GI50 is 1.96 µM with NCI-H522 lung; 4.24 µM in the assay on NCI/ADR-RES ovarian; 2.79 µM in the assay with T-47D breast; 3.22 µM in the assay with HCC-2998 colon; 3.33 µM in the assay with ACHN renal; 2.18 µM with SK-MEL-28 melanoma. Besides, the values for the GI50 in the assay with BT-549 breast, in the assay with NCI-H460 lung and with HCT-15 colon were 3.22 µM, 3.05 µM and 2.89 µM, respectively. The TGI in the assay with NCI-H522 lung is 5.58 µM; with NCI/ADR-RES ovarian, 52.8 µM; in the assay on T-47D breast, 41.1 µM; with HCC-2998 colon it was 10.5 µM; with ACHN renal it was 20.9 µM; in the assay on SK-MEL-28 melanoma it was 4.84 µM. Besides, the values for the TGI in the assay on BT-549 breast, in the assay on NCI-H460 lung and in the assay with HCT-15 colon were 31.6 µM, 10.1 µM and 11.6 µM, respectively.

As for `N/C(=N\OC(=O)NC(Cl)=C(Cl)Cl)c1cc(C(F)(F)F)cc(C(F)(F)F)c1`, the TGI in the assay with COLO 205 colon is 33.4 µM; in the assay with NCI/ADR-RES ovarian, 47.2 µM; with T-47D breast, 25.7 µM; in the assay with HCC-2998 colon, 25.8 µM; in the assay with ACHN renal, 27.4 µM; in the assay on SK-MEL-28 melanoma it was 32.8 µM. The values for the TGI in the assay on BT-549 breast, in the assay with NCI-H460 lung and with HCT-15 colon were 41.2 µM, 36.8 µM and 48.4 µM, respectively.

`O=C(O)c1cn(C2CC2)c2cc(N3CCN(S(=O)(=O)c4ccc(Cl)c(Cl)c4)CC3)c(F)cc2c1=O`: the GI50 in the assay with COLO 205 colon was 3.5 µM; with NCI/ADR-RES ovarian, 4.01 µM; in the assay with T-47D breast it was 3.77 µM; in the assay on HCC-2998 colon it was 4.46 µM; with ACHN renal it was 3.1 µM; in the assay on BT-549 breast, 2.98 µM. Also, the GI50 in the assay on NCI-H460 lung is 3.66 µM; in the assay with HCT-15 colon, 3.3 µM. Further, the TGI with COLO 205 colon is 11.9 µM; in the assay on NCI/ADR-RES ovarian, over 100 µM; in the assay with T-47D breast it was over 100 µM; with HCC-2998 colon it was over 100 µM; in the assay on ACHN renal it was over 100 µM; in the assay on BT-549 breast, over 100 µM. The TGI in the assay with NCI-H460 lung and in the assay on HCT-15 colon was over 100 µM each time.

With `O=C1C[C@@H](c2ccccc2)NCCCCN(O)CCCN1`, the TGI in the assay on COLO 205 colon, with NCI-H522 lung, in the assay with NCI/ADR-RES ovarian, with T-47D breast, in the assay with HCC-2998 colon and in the assay with ACHN renal was over 100 µM in each case. The TGI in the assay with SK-MEL-28 melanoma, in the assay with BT-549 breast and in the assay with HCT-15 colon was over 100 µM each time.
